Consider 9 compounds from ChEMBL document CHEMBL5104202, “Structure-Uptake Relationship Studies of Oxazolidinones in Gram-Negative ESKAPE Pathogens” (J Med Chem, 2022).

Format in all cases: functional, organism-based
In assay [1] the test system is Acinetobacter baumannii. Kind of assay: Antibacterial activity against efflux pump lacking Acinetobacter baumannii assessed as inhibition of bacterial growth.
The subject of assay [2] is Acinetobacter baumannii. Kind of assay: Antibacterial activity against efflux pump lacking/recombinant OM pore producing Acinetobacter baumannii assessed as inhibition of bacterial growth.
In assay [3] the test system is Acinetobacter baumannii. Kind of assay: Antibacterial activity against recombinant OM pore producing Acinetobacter baumannii assessed as inhibition of bacterial growth.
Assay [4] deals with Acinetobacter baumannii. As to the kind of experiment: Antibacterial activity against wild type Acinetobacter baumannii assessed as inhibition of bacterial growth.
Assay [5] relates to Escherichia coli. As to the kind of experiment: Antibacterial activity against wild type Escherichia coli assessed as inhibition of bacterial growth.
For assay [6], the system named is Escherichia coli. Kind of assay: Antibacterial activity against recombinant OM pore producing Escherichia coli assessed as inhibition of bacterial growth.
For assay [7], the system named is Escherichia coli. Kind of assay: Antibacterial activity against efflux pump lacking Escherichia coli assessed as inhibition of bacterial growth.
Assay [8] has as its system Escherichia coli. Kind of assay: Antibacterial activity against efflux pump lacking/recombinant OM pore producing Escherichia coli assessed as inhibition of bacterial growth.
In assay [9] the test system is Pseudomonas aeruginosa. As to the kind of experiment: Antibacterial activity against wild type Pseudomonas aeruginosa assessed as inhibition of bacterial growth.
For assay [10], the system named is Pseudomonas aeruginosa. Kind of assay: Antibacterial activity against recombinant OM pore producing Pseudomonas aeruginosa assessed as inhibition of bacterial growth.
The subject of assay [11] is Pseudomonas aeruginosa. Kind of assay: Antibacterial activity against efflux pump lacking Pseudomonas aeruginosa assessed as inhibition of bacterial growth.
Assay [12] relates to Pseudomonas aeruginosa. Kind of assay: Antibacterial activity against efflux pump lacking/recombinant OM pore producing Pseudomonas aeruginosa assessed as inhibition of bacterial growth.

In general, IC50 refers to the concentration that inhibits the measured activity by half. With `CC(C)c1ccc(-c2ccc(N3C[C@H](CO)OC3=O)cc2F)c(C(C)C)c1`, the IC50 in assay [1] was 17.3 µM; in assay [2], 8.2 µM; in assay [3], 77.9 µM; in [4] it was greater than 100 µM; in [5] it was 99.1 µM; in [6], 20.4 µM. The IC50 in [7] is 15.9 µM; in assay [8] it was 6.6 µM; in [9] it was greater than 100 µM; in [10] it was greater than 100 µM; in assay [11] it was 49 µM; in assay [12] it was 22.3 µM.

Regarding `O=C1O[C@@H](CO)CN1c1ccc(-c2cc(F)cc(F)c2)c(F)c1`, the IC50 in assay [1], in assay [2], in assay [3], in assay [4], in assay [5] and in assay [6] was greater than 100 µM throughout. Moreover, the IC50 in [7], in assay [8], in assay [9], in [10], in assay [11] and in [12] was greater than 100 µM in each case.

As for `O=C1O[C@@H](CO)CN1c1ccc(-c2ccccc2OC(F)(F)F)c(F)c1`, the IC50 is 33.2 µM in [1]; 24.8 µM in assay [2]; 59.1 µM in assay [3]; greater than 100 µM in [4]; 42.6 µM in [5]; 46.3 µM in [6]. For the same compound, the IC50 is 9.3 µM in assay [7]; 21.9 µM in assay [8]; greater than 100 µM in assay [9]; greater than 100 µM in assay [10]; 75.6 µM in assay [11]; 29.9 µM in [12].

As to `O=C1O[C@@H](CO)CN1c1ccc(-c2ccccc2)c(F)c1`, the IC50 is 2.3 µM in [1]; 1.9 µM in assay [2]; 5.5 µM in [3]; 18.4 µM in [4]; 18.4 µM in [5]; 2 µM in assay [6]. Besides, the IC50 in assay [7] is 0.4 µM; in assay [8], 0.3 µM; in assay [9], greater than 100 µM; in [10] it was 13.1 µM; in assay [11], 2.3 µM; in assay [12], 1.4 µM.

With `O=C1O[C@@H](CO)CN1c1ccc(-c2cc[n+](Cc3ccccc3)cc2)c(F)c1`, the IC50 is 23.4 µM in assay [1]; 13 µM in assay [2]; 15.6 µM in assay [3]; greater than 100 µM in assay [4]; 51.6 µM in [5]; 23.3 µM in assay [6]. The IC50 in assay [7] was 15.5 µM; in assay [8] it was 15.6 µM; in assay [9] it was greater than 100 µM; in assay [10], 41.7 µM; in assay [11], 4.6 µM; in assay [12] it was 1.1 µM.

On to `CC[n+]1ccc(-c2ccc(N3C[C@H](CO)OC3=O)cc2F)cc1`, for which the IC50 is greater than 100 µM in assay [1]; 38.5 µM in assay [2]; greater than 100 µM in [3]; greater than 100 µM in assay [4]; 43.8 µM in assay [5]; 36 µM in assay [6]. For the same compound, the IC50 in assay [7] was 13.7 µM; in [8], 15.9 µM; in assay [9], greater than 100 µM; in [10], greater than 100 µM; in assay [11], 57.4 µM; in assay [12], 42.3 µM.

`NC(=S)Nc1cccc(C#Cc2ccc(N3C[C@H](CO)OC3=O)cc2F)c1`: the IC50 in [1], in assay [2], in assay [3], in assay [4], in [5] and in assay [6] was greater than 100 µM throughout. Also, the IC50 in assay [7] is 85 µM; in assay [8], 64.5 µM; in [9], greater than 100 µM; in assay [10], greater than 100 µM; in [11] it was greater than 100 µM; in [12], greater than 100 µM.

Turning to `O=C(O)CCCC#Cc1ccc(N2C[C@H](CO)OC2=O)cc1F`, the IC50 in assay [1], in [2], in assay [3], in assay [4], in assay [5] and in [6] was greater than 100 µM in each case. Further, the IC50 in assay [7], in assay [8], in assay [9], in [10], in assay [11] and in assay [12] was greater than 100 µM in each case.

For the compound `CCC[n+]1ccc(-c2ccc(N3C[C@H](CO)OC3=O)cc2F)cc1`, the IC50 was 89.7 µM in assay [1]; 19.8 µM in [2]; 19.8 µM in assay [3]; greater than 100 µM in assay [4]; 43.9 µM in [5]; 28.3 µM in assay [6]. The concentration for half-maximal inhibition (IC50) was 12.7 µM in [7]; 16.6 µM in assay [8]; greater than 100 µM in assay [9]; greater than 100 µM in assay [10]; greater than 100 µM in assay [11]; greater than 100 µM in assay [12].
